Laboratory results as given in patent US8143262B2, “7-(3′,4′-Dialkoxyphenyl)[1,2,4]-triazolo[1,5-A]pyrimidine compounds, process for preparing thereof, and pharmaceutical composition for treating or preventing asthma, chronic obstructive pulmonary disease, arthritis, atopic dermatitis, tumor and degenerative brain diseases comprising the same” (Korea Research Institute of Chemical Technology, priority 2007, dated 2012).

Experiments:
[1] = system: OVA-sensitized C57BL/6J mice; assay: Eosinophil peroxidase activity (EPO activity) in bronchoalveolar washing of OVA-sensitized mice; format: in vivo, mouse; conditions: oral, 5, 50, 100 and 300 mg/kg
Procedure: (§1) For animal test in vivo, 8-9 week old male C57BL/6J mice having body weight of 20-25 g were used as the test animal. For sensitization and challenge of airway and lung by ovalbumin (OVA), OVA mixed with Al(OH)3 was administered intraperitoneally to cause first sensitization, and second sensitization after 10 days from the first sensitization. After 6 days from the second sensitization, the animals were inhaled with 5% OVA via nebulizer for 3 days. Administration of medicine to the sensitized mice was carried out intraorally (po), three times one hour before every inhalation of OVA. To the control group, 0.5% CMC was administered.
In order to observe cell activity and cell constitution in the washing solution of mouse bronchus alveolus, the animal was inhaled with OVA. After 62 hours, the mouse was anesthetized and the cervicothoracic region was open. A tube containing 0.8 ml of PBS was inserted to the bronchus, and PBS was injected. After massaging the chest for about 30 seconds, cell suspension was obtained from the lung. The cells obtained were centrifuged with 400×g. […] For the measurement of EPO activity, the cell suspension ([…]) was reacted with 0.1 mM OPD, 0.05 M Tris-HCl (pH 8.0), Triton X-100 and 1 mM H2 O2, and then absorbance at 492 nm was measured.

Human PDE-4d = biological target: T1, Human PDE-4d (Homo sapiens, UniProt Q08499); assay: Inhibition of PDE-4 activity ([3H]cAMP hydrolysis, recombinant catalytic domain); format: biochemical; conditions: for IC50: PDE4d 1 nM, cAMP 250 nM, 34° C., 45 minutes, read-out: IC50 against PDE-4 enzyme
T1 construct: The catalytic domain of PDE4d was cloned to pGEX4T3 (APBiotech) as GST fusion expression vector; GST (N); made in house; host or cells: E. coli BL21, DE3
Procedure: Experiment of inhibiting PDE-4 activity was carried out by modifying the method of Loughney (Loughney et al., Journal of Biological Chemistry, 1996, 271(2), 796-806). Human PDE-4d prepared by means of gene recombination technology was used as PDE-4d
The catalytic domain of PDE4d was cloned to pGEX4T3 (APBiotech) as GST fusion expression vector, and then PDE4d gene was transformed to E. coli BL21, DE3. The strain was cultured at 37° C. in LB medium, and when OD reached about 0.3˜0.5, the temperature was lowered to 18° C. to induce expression of PDE4d by using 0.5 mM IPTG. After 15 hours from induction of the expression, cells with PDE4d expressed were recovered. The cells were suspended in a buffer solution (50 mM Tris, pH 8.0, 0.4M NaCl, 5 mM DTT), and crushed, centrifuged and purified. The columns used for the purification were Q-cephalose (APBiotech), Glutanione-cephalose (APBiotech) and Superdex200 gel permeation chromatography (APBiotech), in this order.
In order to measure the ability of individual compound to inhibit PDE4d activity, PDE4d 1 nM and cAMP (Sigma) 250 nM as substrate were added to the reaction buffer (50 mM Tris-HCl (pH 7.5) and 4 mM MgCl2), and individual compound obtained from Example 1 was added in a concentration from 1 to 50 μM thereto, and the mixture was reacted at 34° C. for 45 minutes. Total reaction solution was 60 μl. As to cAMP, a mixture with the ratio of [^3H]cAMP (Amersham, 1 μCi/μl) to cAMP (hot:cold, that is, isotope:non-isotope) being 1:200 was used. Then, the reaction was quenched by heating at 95° C. for 2 minutes. After cooling the mixture for 3 minutes, 1 mg/ml of Snake Venome (Sigma V0376) (30 μl) was added thereto. After reacting at 34° C. for 30 minutes, 30 μl of the reaction mixture was added to 250 μl of DOWEX 1×2-100 ion exchange resin (Aldrich, previously mixed with distilled water in a ratio of 1:1.6) by portions, and the mixture was vigorously stirred for 2 minutes. After settling the resin down, the supernatant (130 μl) was added to 2 ml of scintillation cocktail (Packard), and the mixture was thoroughly mixed, and then measured by using beta-counter. With respect to the enzyme activity of control group (experiment carried out without adding compound of Chemical Formula (1)), the concentration of each test compound to inhibit 50% of enzyme activity was determined as IC50.

[2] = system: OVA-sensitized C57BL/6J mice; assay: Airway hyper-responsiveness (Penh, whole body plethysmography) after methacholine in OVA-sensitized mice; format: in vivo, mouse; conditions: oral, 100 mg/kg; versus Roflumilast 100 mg/kg oral
Procedure: as §1
The analysis of airway hyper-responsiveness (AHR) was carried out by using a whole body plethysmographer with a living animal.
After 48 hours from inhalation of OVA, the animal was inhaled with methacholine (Mch) by means of nebulizer. Responsiveness of airway due to Mch was evaluated by enhanced pause (Penh) value on capability of respiration through airway by means of whole body plethysmography, and compared with control medicine.

PDE-4 = conditions: background art; read-out: IC50 of inhibiting PDE-4; cited from earlier work
ferrets = assay: Test of side-effect related to emesis in ferrets; format: in vivo; conditions: ferret, 7 mg/kg
Procedure: Male ferrets having the body weight of about 1.5˜2 kg, purchased from Marshal, were classified into the groups: control, yohimbine, #102-500 mg/kg and #102-1000 mg/kg treated groups. For three animals in each group, the medicine dissolved in 0.5% CMC at a concentration of 500 and 1000 mg/kg was orally administered. During 3 hours after then, the number of vomiting for each animal, and the number of animals showing salivation and diarrhea were measured by visual observation.

T1 sequence (Q08499 386-715 limits assumed): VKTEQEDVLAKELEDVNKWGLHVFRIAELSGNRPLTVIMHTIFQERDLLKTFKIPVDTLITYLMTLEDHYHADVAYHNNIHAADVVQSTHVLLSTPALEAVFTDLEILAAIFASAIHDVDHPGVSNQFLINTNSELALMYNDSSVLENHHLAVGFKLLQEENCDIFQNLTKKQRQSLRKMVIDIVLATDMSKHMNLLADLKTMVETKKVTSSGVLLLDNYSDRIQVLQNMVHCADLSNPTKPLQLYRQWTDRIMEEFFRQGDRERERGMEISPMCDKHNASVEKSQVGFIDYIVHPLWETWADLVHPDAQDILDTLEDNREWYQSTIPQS

SMILES | IC50 (Human PDE-4d) | other results
[O-][n+]1cccc(-c2nc3nccc(-c4ccc(OC(F)F)c(OCC5CC5)c4)n3n2)c1 [Compound 102, 3-[7-{3-(cyclopropylmethoxy)-4-(difluoromethoxy)phenyl}-[1,2,4]triazolo[1,5-a]pyrimidine-2-yl]-pyridine-N-oxide] | 74 nM | eosinophil peroxidase activity (EPO activity) [1]: excellent effect; effect of treating asthma: degree of airway contraction by enhanced pause (Penh) value [2]: far superior effect of treating asthma to the control compound, Roflumilast
COc1ccc(-c2ccnc3nc(-c4cccc(C#N)c4)nn23)cc1OC1CCCC1 [Compound 129, 7-[3-(Cyclopentoxy)-4-methoxyphenyl]-2-(3-cyanophenyl)-[1,2,4]triazolo[1,5-a]pyrimidine] | 13 nM | –
[O-][n+]1cccc(-c2nc3nccc(-c4ccc(OC(F)F)c(OC(F)F)c4)n3n2)c1 [Compound 130, 3-[7-(3,4-Bis-difluoromethoxyphenyl)-[1,2,4]triazolo[1,5-a]pyrimidine-2-yl]-pyridine-N-oxide] | 250 nM | –
O=C(O)c1cccc(-c2nc3nccc(-c4ccc(OC(F)F)c(OCC5CC5)c4)n3n2)c1 [Compound 131, 3-[7-{3-(Cyclopropylmethoxy)-4-(difluoromethoxy)phenyl}-[1,2,4]triazolo[1,5-a]pyrimidin-2-yl]benzoic acid] | 20 nM | activity on inhibiting PDE-4 (in words) (Human PDE-4d; comment on Table 2): excellent activity on inhibiting PDE-4
Cc1cccc(-c2nc3nccc(-c4ccc(OC(F)F)c(OCC5CC5)c4)n3n2)c1 [Compound 132, 7-[3-(Cyclopropylmethoxy)-4-(difluromethoxy)phenyl]-2-m-tolyl-[1,2,4]triazolo[1,5-a]pyrimidine] | 30 nM | –
Cc1cc(C)cc(-c2nc3nccc(-c4ccc(OC(F)F)c(OCC5CC5)c4)n3n2)c1 [Compound 133, 7-[3-(Cyclopropylmethoxy)-4-(difluoromethoxy)phenyl]-2-(3,5-dimethylphenyl)-[1,2,4]triazolo[1,5-a]pyrimidine] | 42 nM | –
COc1cc(-c2nc3nccc(-c4ccc(OC(F)F)c(OCC5CC5)c4)n3n2)ccc1C [Compound 134, 7-[3-(Cyclopropylmethoxy)-4-(difluoromethoxy)phenyl]-2-(3-methoxy-4-methylphenyl)-[1,2,4]triazolo[1,5-a]pyrimidine] | 40 nM | –
COc1ccc(-c2ccnc3nc(-c4cccnc4)nn23)cc1OC1CCCC1 [Compound 135, 7-[3-(Cyclopentoxy)-4-methoxyphenyl]-2-(3-pyridyl)-[1,2,4]triazolo[1,5-a]pyrimidine] | 50 nM | –
Cc1ccc(-c2nc3nccc(-c4ccc(OC(F)F)c(OCC5CC5)c4)n3n2)c(C)c1 [Compound 136, 7-[3-(Cyclopropylmethoxy)-4-(difluoromethoxy)phenyl]-2-(2,4-dimethylphenyl)-[1,2,4]triazolo[1,5-a]pyrimidine] | 60 nM | –
O=C(O)c1ccc(-c2nc3nccc(-c4ccc(OC(F)F)c(OCC5CC5)c4)n3n2)cn1 [Compound 137, 5-[7-{3-(cyclopropylmethoxy)-4-(difluoromethoxy)phenyl}-[1,2,4]triazolo[1,5-a]pyrimidin-2-yl]pyridine-2-carboxylic acid] | 200 nM | –
COC(=O)c1ccc(-c2nc3nccc(-c4ccc(OC(F)F)c(OCC5CC5)c4)n3n2)cn1 [Compound 138, 5-[7-{3-(cyclopropylmethoxy)-4-(difluoromethoxy)phenyl}-[1,2,4]triazolo[1,5-a]pyrimidin-2-yl]pyridine-2-carboxylic acid methyl ester] | 180 nM | –
NC(=O)c1ccc(-c2nc3nccc(-c4ccc(OC(F)F)c(OCC5CC5)c4)n3n2)cn1 [Compound 139, 5-[7-{3-(cyclopropylmethoxy)-4-(difluoromethoxy)phenyl}-[1,2,4]triazolo[1,5-a]pyrimidin-2-yl]pyridine-2-carboxamide] | 46 nM | –
CSc1ccc(-c2nc3nccc(-c4ccc(OC(F)F)c(OCC5CC5)c4)n3n2)cc1 [Compound 140, 7-[3-(Cyclopropylmethoxy)-4-(difluoromethoxy)phenyl]-2-(4-methylthiophenyl)-[1,2,4]triazolo[1,5-a]pyrimidine] | 35 nM | –
O=C(Nc1c(Cl)cncc1Cl)c1ccc(OC(F)F)c(OCC2CC2)c1 [Roflumilast] | – | IC50 (PDE-4): 0.8 nM
COC(=O)[C@@H]1[C@H]2C[C@H]3c4[nH]c5ccccc5c4CCN3C[C@@H]2CC[C@@H]1O [yohimbine] | – | animals showing salivation and diarrhea (ferrets): 66%; vomiting symptoms (number of vomiting per animal) (ferrets; observed in all ferrets used): average twice
